# Assay results as given in patent US10201556B2, “Combination for use in treating diseases or conditions associated with melanoma, or treating diseases or conditions associated with activated B-raf pathway” (InteRNA Technologies B.V., priority 2012, dated 2019).
# Tests used:
# A2058 melanoma cell line = assay: Anti-proliferative effect of miRNA mimics, MTS assay; assay type: cell-based; details: 10 nM mimic, 72 hours after transfection
# Protocol: (§1) The anti-proliferative effect of miRNA's in melanoma cell lines was determined with mature miRNA mimics from Ambion. For each cell line optimal growth and transfection conditions were determined prior to the experiment. Cells were plated in a 96-well plate at 3000 cells per well (100 uL) and were grown at 37 C, 5% CO2. Transfection mix (20 uL per well) was made for each miRNA mimic concentration with 0.3 uL (M249, M249-R4) or 0.5 uL (A375Hu, A375Hu-R1, A2058, RPMI-7951) X-TremeGene (Roche) per well (according to manufacturer's instructions) in Optimem (Invitrogen). Cells were transfected 24 hours after plating in triplicate. Medium was replaced 48 hours after transfection with fresh medium.
# M249 melanoma cell line = assay: as above; assay type: cell-based; details: 5 nM mimic, 72 hours after transfection
# Protocol: as §1
# [1] = system: M249-AR (M249-R4) melanoma cell line; assay: as above; assay type: cell-based; details: 30 nM mimic, 72 hours after transfection
# Protocol: as §1
# [2] = system: RPMI-7951 melanoma cell line; assay: as above; assay type: cell-based; details: 10 nM mimic, 72 hours after transfection
# Protocol: as §1
# [3] = system: BRAFV600E mutant melanoma cell lines A2058, RPMI-7951 and M233; assay: MTS cell viability after miR-3157 mimic transfection, intrinsically resistant lines; assay type: cell-based; details: A2058, RPMI-7951, M233; 10 nM mimic, 72 hours (FIG. 11b)
# Protocol: miR-3157 broadly affects melanoma cell line viability. Melanoma cell lines were divided into those that have the BRAFV600E mutation and are sensitive (a), intrinsically resistant (b) or acquired resistance to vemurafenib (c). Cell lines were transfected in triplicate with control miRNA or miR-3157 mimics (10 nM; n=2). Mock is transfectant only. Cell viability was determined using the MTS assay and calculated relative to mock transfected cells.
# A375 cells were obtained from the Hubrecht Institute (Utrecht, The Netherlands); SKMEL-28, A2058 and RPMI-7951 were from the ATCC; SKMEL-57 was a gift from Dr. Patricia Groenen (Radboud University Nijmegen Medical Centre, The Netherlands); for cell line characteristics of M249, M249-AR4, M233 and M376 see (Atefi et al. 2011). A375-R, with in vitro acquired resistance to vemurafenib, was established in our lab by clonal selection of cells continually exposed to 1 μM vemurafenib. A375, A375-R, SKMEL-28, A2058 and SKMEL-57 were grown in DMEM GlutaMAX™-I (Gibco®), all other cell lines in RPMI-1640 (Gibco®). Media was supplemented with 10% FBS (Sigma), and cells were maintained in a humidified 37° C. incubator (Thermo Scientific) with 5% CO2. […]
# Cells were seeded in 96-well plates and transfected the next day. […] Read-out was performed at 490 nm on a Multiskan FC plate reader (Thermo Scientific) at 72 hours post transfection.
# [4] = system: ERK1/MAPK3, RRM2, AURKB, CDK4, BCL2, BIRC5 mRNA; assay: Quantitative real-time PCR of mRNA levels in A375 cells; assay type: cell-based, human; details: 10 nM mimic, compared to miRNA control (FIG. 12b)
# Protocol: Total RNA was isolated using TRI Reagent® (Sigma). To detect miR-3157 and U6 (small nuclear RNA RNU6-1) by qPCR, first 100 ng total RNA was mixed with 50 nM of a miR-3157 specific stem-loop (SL) primer or a U6 Reverse Transcriptase (RT) primer (Table 9), 33 μM dNTPs and 50 units M-MLV Reverse Transcriptase (RT) enzyme (Promega) in a 15 μl SL-RT reaction, and incubated for 30 min at 16° C., 30 min at 42° C. and 5 min at 85° C. For cDNA synthesis of total RNA, 1 μg RNA was mixed with 50 units M-MLV RT enzyme, 0.4 μg random hexamers (Qiagen) and 1 mM dNTPs in a 20 μl cDNA synthesis reaction, and incubated 10 min at 25° C., 120 min at 37° C. and 5 min at 85° C. For miR-3157 and U6 quantification, one μl SL-RT product was used for quantification in a single 20 μl qPCR reaction, using iQ™ SYBR® Green (Bio-Rad), and 0.625 μM forward and reverse primer (Table 9). The PCR protocol was 5 min 95° C. (1×), 10 s 95° C./20 s 60° C./10 s 72° C. (×45). For mRNA quantification, 1 μl cDNA was incubated with 1.25 μM gene-specific forward and reverse primers (Table 10) and iQ™ SYBR® Green in a 20 μl qPCR reaction for 5 min at 95° C. (1×), 15 s 95° C./30 s 60° C./30 s 72° C. (×45). PCR amplification was performed on a CFX96 Touch™ Real-Time PCR Detection System (Bio-Rad).
# 3′UTR of AURKB = assay: 3′UTR Luciferase assay in HeLa cells; assay type: cell-based; details: 10 nM mimic, 24 hrs
# Protocol: (§2) The 3′UTR sequences (Table 11) were synthesized by IDT Technologies, and cloned into psiCHECK™-2 (Promega). HeLa cells (5×10^4) were seeded in 24-well plates, and the next day transfected with 100 ng/well 3′UTR psiCHECK™-2 construct and 10 nM miR-3157 mimics, or control miRNA using Lipofectamine 2000 Transfection Reagent (Invitrogen). After 24 hrs cells were lysed using Passive Lysis Buffer and luciferase activity was measured using the Dual-Luciferase Reporter Assay System (Promega) and the Glomax-Multi Detection system (Promega) in a 96-well format according to the manufacturer's protocol. The Renilla luciferase signal was normalized to background Firefly luciferase, and changes in Renilla luciferase activity in the miR-3157 transfected cells calculated relative to the Renilla signal in control mimic transfected cells.
# 3′UTR of ERK1 = assay: 3′UTR Luciferase assay in HeLa cells; assay type: cell-based; details: 10 nM mimic, 24 hrs
# Protocol: as §2
# 3′UTR of RRM2 = assay: 3′UTR Luciferase assay in HeLa cells; assay type: cell-based; details: 10 nM mimic, 24 hrs
# Protocol: as §2
substance,measurement,setting,value
"hsa-miR-3157-5p: mature miRNA mimic, SEQ ID NO 6 UUCAGCCAGGCUAGUGCAGUCU (listed as RNA, chemistry not given here)",A2058 % Viability 10 nM,A2058 melanoma cell line,43%
same,M249 % Viability 5 nM,M249 melanoma cell line,42%
same,M249-AR % Viability 30 nM,[1],53%
same,RPMI-7951 % Viability 10 nM,[2],26%
same,cell viability relative to mock transfected cells,[3],viability was reduced
same,"mRNA levels of ERK1, RRM2, AURKB, CDK4, BCL2, BIRC5 by qPCR",[4],reduced mRNA levels
same,"luciferase activity, AURKB 3′UTR with mutated miR-3157 binding site",3′UTR of AURKB,remained unaffected
same,"luciferase activity, AURKB 3′UTR unmodified",3′UTR of AURKB; relative to control mimic,reduced luciferase activity
same,"luciferase activity, ERK1 3′UTR with mutated miR-3157 binding site",3′UTR of ERK1,remained unaffected
same,"luciferase activity, ERK1 3′UTR unmodified",3′UTR of ERK1; relative to control mimic,reduced luciferase activity
same,"luciferase activity, RRM2 3′UTR with mutated miR-3157 binding site",3′UTR of RRM2,remained unaffected
same,"luciferase activity, RRM2 3′UTR unmodified",3′UTR of RRM2; relative to control mimic,reduced luciferase activity
